Our source for the IC50 values is patent US20150166523A1, “BRANCHED CHAIN ALKYL HETEROAROMATIC RING DERIVATIVE” (TAISHO PHARMACEUTICAL CO., LTD., priority 2012, published 2015).

Usually IC50 stands for the midpoint of a concentration-inhibition curve.

For experiment [1], the target named is T1, human orexin-1 receptor (hOX1R) (Homo sapiens, UniProt O43613).
T1 construct: expressed in transfected cells; host or cells: Chinese hamster ovary (CHO) cells
T1 sequence (O43613 1-425): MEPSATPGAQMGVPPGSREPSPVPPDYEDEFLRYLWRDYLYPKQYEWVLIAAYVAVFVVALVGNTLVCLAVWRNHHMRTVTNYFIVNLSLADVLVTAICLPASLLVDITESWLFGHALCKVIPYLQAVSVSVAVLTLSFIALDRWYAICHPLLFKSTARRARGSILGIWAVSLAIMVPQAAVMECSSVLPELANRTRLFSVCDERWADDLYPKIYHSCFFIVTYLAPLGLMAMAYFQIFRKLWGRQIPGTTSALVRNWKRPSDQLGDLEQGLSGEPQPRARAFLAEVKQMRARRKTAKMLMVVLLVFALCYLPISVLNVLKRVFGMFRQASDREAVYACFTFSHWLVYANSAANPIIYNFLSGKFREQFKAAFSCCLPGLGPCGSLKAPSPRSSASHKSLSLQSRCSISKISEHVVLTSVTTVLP
Kind of experiment: Measurement of orexin antagonistic activity (intracellular Ca2+ fluorescence, FDSS) on hOX1R. The format is cell-based. To be noted: CHO cells forcibly expressing hOX1R; Fluo-4AM; ligand peptide (substituted human orexin-A) 300 pM; compound preincubated 30 minutes; read-out: IC50 Value OX1. As to the method: (§1) The antagonistic activities of the test compounds on human orexin-1 receptor (hOX1R) and orexin-2 receptor (hOX2R) were measured by modifying from the method described in literature (Toshikatsu Okumura et al., Biochemical and Biophysical Research Communications, 280, 976-981, 2001). Chinese hamster ovary (CHO) cells forcibly expressing the hOX1R and hOX2R were seeded into a 96 well Black clear bottom plate (Nunc) at 20,000 cells per well, which were cultured in Ham's F-12 medium containing 0.1 mM MEM non-essential amino acids, 0.5 mg/mL G418, 10% fetal bovine serum (all by Invitrogen) for 16 hours under the conditions of 37° C., 5% CO2. After removing the medium, 100 μL of 0.5 μM Fluo-4AM ester (Dojin) in an assay buffer (25 mM HEPES (Dojin), Hank's balanced salt solution (Invitrogen), 0.1% bovine serum albumin, 2.5 mM probenecid, 200 μg/mL Amaranth (all by Sigma-Aldrich), pH 7.4) was added and the cells were incubated for 60 minutes at 37° C., 5% CO2. After removing the assay buffer containing fluo-4AM ester, the test compound was dissolved in dimethyl sulfoxide to be 10 mM and diluted with the assay buffer, 150 μL, of which was added and incubated for 30 minutes.
(§2) The reaction was measured for the fluorescence intensity of each well every second for 3 minutes using Functional Drug Screening System (FDSS; Hamamatsu Photonics K.K.), and the antagonistic activity was determined using the maximum fluorescence intensity as the indicator of intracellular Ca2+ concentration.

The target in experiment [2] is T2, orexin-2 receptor (hOX2R) (Homo sapiens, UniProt O43614).
T2 construct: expressed in transfected cells; host or cells: Chinese hamster ovary (CHO) cells
T2 sequence (O43614 1-444): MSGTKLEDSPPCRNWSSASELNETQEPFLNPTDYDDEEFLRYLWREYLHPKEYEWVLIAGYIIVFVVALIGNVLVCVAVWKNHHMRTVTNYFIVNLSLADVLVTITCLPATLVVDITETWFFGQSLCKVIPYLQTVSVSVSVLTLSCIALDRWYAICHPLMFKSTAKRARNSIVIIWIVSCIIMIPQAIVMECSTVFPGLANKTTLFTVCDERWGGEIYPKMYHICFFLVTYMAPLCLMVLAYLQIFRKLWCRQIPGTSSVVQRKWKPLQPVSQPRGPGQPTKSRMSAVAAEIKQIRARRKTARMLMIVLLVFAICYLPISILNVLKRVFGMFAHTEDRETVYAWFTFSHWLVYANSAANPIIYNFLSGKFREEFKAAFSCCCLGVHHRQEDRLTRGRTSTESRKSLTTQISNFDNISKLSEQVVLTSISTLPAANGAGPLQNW
In words: Measurement of orexin antagonistic activity (intracellular Ca2+ fluorescence, FDSS) on hOX2R. To be noted: CHO cells forcibly expressing hOX2R; Fluo-4AM; ligand peptide (substituted human orexin-A) 3 nM; compound preincubated 30 minutes; read-out: IC50 Value OX2. The format is cell-based. As to the method:
as §1, §2

For `CCN(C(=O)c1cc(C)ccc1-n1nccn1)[C@@H](C)Cn1cc(-c2ccc(F)cn2)nn1` [Example 82, N-Ethyl-N-{(2S)-1-[4-(5-fluoropyridin-2-yl)-1H-1,2,3-triazol-1-yl]propan-2-yl}-5-methyl-2-(2H-1,2,3-triazol-2-yl)benzamide], the IC50 amounted to 2.2 nM in experiment [1] and 13.3 nM in experiment [2].

With `C[C@@H](Cn1ccc(-c2ccc(F)cn2)n1)N(C)C(=O)c1cc(F)ccc1-c1ncccn1` [Example 5, 5-Fluoro-N-{(2S)-1-[3-(5-fluoropyridin-2-yl)-1H-pyrazol-1-yl]propan-2-yl}-N-methyl-2-(pyrimidin-2-yl)benzamide], the IC50 in experiment [2] amounted to 75.5 nM.

Turning to `CCN(C(=O)c1cc(F)ccc1-c1ncccn1)[C@@H](C)Cn1cc(-c2ccc(F)cn2)nn1` [Example 81, N-Ethyl-5-fluoro-N-{(2S)-1-[4-(5-fluoropyridin-2-yl)-1H-1,2,3-triazol-1-yl]propan-2-yl}-2-(pyrimidin-2-yl) benzamide], the figures for the IC50 in experiment [1] and in experiment [2] were 177 nM and 3150 nM, respectively.

Consider `CCN(C(=O)c1cc(F)ccc1-n1nccn1)[C@@H](C)Cn1nnc(-c2ccc(F)cc2)n1` [Example 66, N-Ethyl-5-fluoro-N-{(2S)-1-[5-(4-fluorophenyl)-2H-tetrazol-2-yl]propan-2-yl}-2-(2H-1,2,3-triazol-2-yl) benzamide], for which the IC50 in experiment [1] came to 1.6 nM; in experiment [2], 129 nM.

As for `Cc1ccc(-n2nccn2)c(C(=O)N(C)[C@H](Cn2ccc(-c3ccc(F)cn3)n2)C(C)C)c1` [Example 23, N-{(2S)-1-[3-(5-Fluoropyridin-2-yl)-1H-pyrazol-1-yl]-3-methylbutan-2-yl}-N,5-dimethyl-2-(2H-1,2,3-triazol-2-yl) benzamide], the IC50 in experiment [1] was found to be 134 nM; in experiment [2], 1890 nM.

In the case of `CCN(C(=O)c1nc(C)ccc1-n1nccn1)[C@@H](C)Cn1nnc(-c2ccc(F)cn2)n1` [Example 86, N-Ethyl-N-{(2S)-1-[5-(5-fluoropyridin-2-yl)-2H-tetrazol-2-yl]propan-2-yl}-6-methyl-3-(2H-1,2,3-triazol-2-yl)pyridine-2-carboxamide], the half-inhibitory concentration (IC50) in experiment [1] came out at 37.7 nM; in experiment [2] it was 1030 nM.

Turning to `COCCN(C(=O)c1cc(C)ccc1-n1nccn1)[C@@H](C)Cn1nnc(-c2ccc(F)cc2)n1` [Example 63, N-{(2S)-1-[5-(4-Fluorophenyl)-2H-tetrazol-2-yl]propan-2-yl}-N-(2-methoxyethyl)-5-methyl-2-(2H-1,2,3-triazol-2-yl)benzamide], the IC50 in experiment [1] came out at 2.2 nM; in experiment [2], 66.9 nM.

As for `COCCN(C(=O)c1cc(C)ccc1-n1nccn1)[C@@H](C)Cn1ccc(-c2ccc(F)cc2)n1` [Example 39, N-{(2S)-1-[3-(4-Fluorophenyl)-1H-pyrazol-1-yl]propan-2-yl}-N-(2-methoxyethyl)-5-methyl-2-(2H-1,2,3-triazol-2-yl)benzamide], the half-inhibitory concentration (IC50) in experiment [1] came out at 1.2 nM; in experiment [2], 5.5 nM.

Take `CCN(C(=O)c1cc(F)ccc1-c1ncccn1)[C@@H](C)Cn1ccc(-c2ccc(F)cn2)n1` [Example 8, N-Ethyl-5-fluoro-N-[(2S)-1-[3-(5-fluoropyridin-2-yl)-1H-pyrazol-1-yl]propan-2-yl]-2-(pyrimidin-2-yl) benzamide]: the IC50 is 1.5 nM in experiment [1] and 35.3 nM in experiment [2].

As for `C[C@@H](Cn1cc(-c2ccc(F)cc2)cn1)N(C)C(=O)c1cc(F)ccc1-c1ncccn1` [Example 32, 5-Fluoro-N-{(2S)-1-[4-(4-fluorophenyl)-1H-pyrazol-1-yl]propan-2-yl}-N-methyl-2-(pyrimidin-2-yl)benzamide], the figures for the IC50 in experiment [1] and in experiment [2] were 20.7 nM and 96.9 nM, respectively.

Turning to `CCN(C(=O)c1ccccc1-c1ncccn1)[C@@H](C)Cn1ccc(-c2ccc(F)cc2)n1` [Example 10, N-Ethyl-N-[(2S)-1-[3-(4-fluorophenyl)-1H-pyrazol-1-yl]propan-2-yl)-2-(pyrimidin--2-yl) benzamide], the IC50 is 0.2 nM in experiment [1] and 12.8 nM in experiment [2].

`CCN(C(=O)c1ccccc1-c1ncccn1)[C@@H](C)Cc1noc(-c2ccc(F)cc2)n1` [Example 54, N-Ethyl-N-{(2S)-1-[5-(4-fluorophenyl)-1,2,4-oxadiazol-3-yl]propan-2-yl}-2-(pyrimidin-2-yl)benzamide]: the IC50 was found to be 2 nM in experiment [1] and 75.7 nM in experiment [2].

With `Cc1ccc(-c2ncccn2)c(C(=O)N(C)[C@@H](C)Cn2ccc(-c3ccc(F)cn3)n2)c1` [Example 6, N-{(2S)-1-[3-(5-Fluoropyridin-2-yl)-1H-pyrazol-1-yl]propan-2-yl}-N,5-dimethyl-2-(pyrimidin-2-yl) benzamide], the concentration for half-maximal inhibition (IC50) in experiment [1] was 1.2 nM; in experiment [2], 8.4 nM.

Take `Cc1ccc(-c2ncccn2)c(C(=O)N(C)[C@@H](C)Cc2noc(-c3ccc(F)cc3)n2)c1` [Example 60, N-{(2S)-1-[5-(4-Fluorophenyl)-1,2,4-oxadiazol-3-yl]propan-2-yl}-N,5-dimethyl-2-(pyrimidin-2-yl)benzamide]: the concentration for half-maximal inhibition (IC50) in experiment [1] turned out to be 1.3 nM; in experiment [2], 45 nM.

Turning to `Cc1ccc(-n2nccn2)c(C(=O)N(C)[C@@H](C)Cn2ccc(-c3ccc(F)cn3)n2)c1` [Example 19, N-{(2S)-1-[3-(5-Fluoropyridin-2-yl)-1H-pyrazol-1-yl]propan-2-yl}-N,5-dimethyl-2-(2H-1,2,3-triazol-2-yl) benzamide], the half-maximal inhibitory concentration (IC50) in experiment [1] worked out at 1.1 nM; in experiment [2], 5.8 nM.

As to `Cc1ccc(-n2nccn2)c(C(=O)N(CCO)[C@@H](C)Cn2ccc(-c3ccc(F)cc3)n2)c1` [Example 42, N-{(2S)-1-[3-(4-Fluorophenyl)-1H-pyrazol-1-yl]propan-2-yl}-N-(2-hydroxyethyl)-5-methyl-2-(2H-1,2,3-triazol-2-yl)benzamide], the IC50 in experiment [1] is 1.1 nM; in experiment [2] it was 21.8 nM.

Regarding `CCN(C(=O)c1cc(F)ccc1-n1nccn1)[C@@H](C)Cc1noc(-c2ccc(F)cc2)n1` [Example 50, N-Ethyl-5-fluoro-N-{(2S)-1-[5-(4-fluorophenyl)-1,2,4-oxadiazol-3-yl]propan-2-yl}-2-(2H-1,2,3-triazol-2-yl) benzamide], the values for the IC50 in experiment [1] and in experiment [2] were 0.8 nM and 16.8 nM, respectively.

Regarding `CCN(C(=O)c1cc(F)ccc1-c1ncccn1)[C@@H](C)Cn1ccc(-c2ccc(F)cc2)n1` [Example 11, N-Ethyl-5-fluoro-N-[(2S)-1-[3-(4-fluorophenyl)-1H-pyrazol-1-yl]propan-2-yl}-2-(pyrimidin-2-yl) benzamide], the IC50 in experiment [1] was determined as 0.2 nM; in experiment [2], 14.4 nM.

Turning to `CCN(C(=O)c1nc(C)ccc1-n1nccn1)[C@@H](C)Cn1cc(-c2ccc(F)c(F)c2)cn1` [Example 27, N-{(2S)-1-[4-(3,4-Difluorophenyl)-1H-pyrazol-1-yl]propan-2-yl}-N-ethyl-6-methyl-3-(2H-1,2,3-triazol-2-yl) pyridine-2-carboxamide], the IC50 in experiment [1] was determined as 1.4 nM; in experiment [2], 13.8 nM.

Take `Cc1ccc(-n2nccn2)c(C(=O)N(CCS(C)(=O)=O)[C@@H](C)Cn2cc(-c3ccc(F)cc3)nn2)c1` [Example 90, N-{(2S)-1-[4-(4-Fluorophenyl)-1H-1,2,3-triazol-1-yl]propan-2-yl}-5-methyl-N-[2-(methylsulfonyl)ethyl]-2-(2H-1,2,3-triazol-2-yl)benzamide]: the results for the IC50 in experiment [1] and in experiment [2] were 23.7 nM and 2070 nM, respectively.

Regarding `Cc1ccc(-c2ncccn2)c(C(=O)N(C)[C@@H](C)Cc2noc(-c3ccc(F)cn3)n2)c1` [Example 46, N-{(2S)-1-[5-(5-Fluoropyridin-2-yl)-1,2,4-oxadiazol-3-yl]propan-2-yl}-N,5-dimethyl-2-(pyrimidin-2-yl)benzamide], the IC50 in experiment [1] came out at 21.6 nM.
